From a melting point compilation (Tetko et al.; mined from patent text by program, amines drawn as free bases though some values may be those of a salt)

Row | SMILES | melting point [°C]
1 | CCOc1ccc2nc(COc3ccc(CC4SC(=O)N(C(c5ccccc5)(c5ccccc5)c5ccccc5)C4=O)cc3)n(C)c2n1 (configuration not stated) | 88 to 100
2 | CC(C)(C)S(=O)(=O)N1C[C@@H](F)C[C@@H]1c1cc(F)cc(C#N)c1 | 182 to 184
3 | O=c1[nH]cnn1-c1ccc(C(F)(F)F)cc1 | 221
4 | O=C(O)c1c(Cl)cc(Cl)nc1Cl | 138 to 141
5 | COC1=C(OC)C(=O)C2=C(CC(CO)(CCCCCCCCO)C2)C1=O | 59 to 61
6 | CCC12CCC3=C(CC(C)c4cc(OC)ccc43)C1=CCC21OCCO1 (configuration not stated) | 116 to 119
7 | CCOC(=O)c1ccc(OCCCCCCc2cccc(O)c2O)cc1 | 45 to 47
8 | N#CC(C(N)=O)=C1Cc2ccccc2SN1 | 260 to 267
9 | CN(C)C1(c2ccccc2)CCC(CNC(=O)NCCc2c[nH]c3ccccc23)CC1 (configuration not stated) | 159 to 163
10 | CC1(C)CCC(C)(C)c2cc(OCc3ccc(C#N)cc3)ccc21 | 149 to 150
11 | CCc1ccnc(C(=O)c2[nH]c3ccc(OC(F)(F)F)cc3c2CC(=O)O)c1 | 223
12 | COc1cc(OC)cc(-c2ncoc2-c2ccc(OC)c(O)c2N)c1 | 140 to 143
13 | CC(C)(C)c1cc(C(C)(CC(=O)O)c2ccc(O)c(C(C)(C)C)c2)ccc1O | 156
14 | O=c1c2ccccc2oc2cc(OCC3CO3)ccc12 (configuration not stated) | 157 to 158
15 | CCCC(O)c1cc(C)cc(C)c1C=CC1OCC(C)(C)CO1 (configuration not stated) | 56 to 59
16 | Cc1ncnc(C)c1C(=O)O | 203 to 204
17 | CCn1cc(C(=O)O)c(=O)c2ccc(N3CCNCC3)nc21 | 272 to 273
18 | COc1ccc(S(=O)(=O)Nc2cccnc2Nc2ccc(OC)c(OC)c2)cc1 | 126 to 127
19 | CC(=O)Nc1cc(C)c(N)c(C)c1 | 148
20 | CC(=O)NC(C=CCP(=O)(O)O)C(=O)O (configuration not stated) | 155
21 | CC(C)(C)c1cc(CCC(=O)NCc2cccc(NC(=N)c3cccs3)c2)cc(C(C)(C)C)c1O | 163 to 164

Row | SMILES | melting point [°C]
22 | c1cc(-c2cn3c(n2)CCC3)ccn1 | 140 to 141
23 | COC(=O)c1ccc2cc(Cl)ccc2c1 | 97 to 98
24 | CC(=O)NCC1CN(c2ccc3c(c2)CC(CO)N3C=O)C(=O)O1 (configuration not stated) | 132 to 136
25 | C=CCOc1cc(-c2ncnc(C(F)F)c2Cl)c(F)cc1Cl | 69 to 71
26 | Cc1cccc(C2=NC(C)(C(C)C)C(=S)N2)c1 (configuration not stated) | 122 to 123
27 | CCCC1=C(C(=O)OCC)C(c2cccc(F)c2F)c2c[nH]nc2N1 (configuration not stated) | 207
28 | CSc1cnc(NC(=O)c2ccccc2OC(C)=O)s1 | 145 to 147
29 | Cc1c(C(=O)Nc2ccc(Cl)c([N+](=O)[O-])c2)cnn1-c1ccc(C(F)(F)F)cc1 | 206 to 208
30 | Cn1c(=O)oc2cc(C(O)CCN3CCOCC3)ccc21 (configuration not stated) | 132
31 | COc1ccc(C2Nc3ccccc3C(=O)N2c2ccc(F)c(C(F)(F)F)c2)cn1 (configuration not stated) | 167 to 168
32 | N#Cc1cc2c(c(-c3ccccc3Cl)c1)OC(CN)C2 (configuration not stated) | 173 to 175
33 | CC(Oc1ncn(-c2ccc(Br)cc2)n1)C(=O)O (configuration not stated) | 195 to 197
34 | CN1CCC(Oc2cc(Cl)ccc2C(N)=O)C1 (configuration not stated) | 122 to 123
35 | Cc1c(C(=O)Nc2ccc(N3CCC(N(C)CCO)CC3)c(C#N)c2)cnn1-c1ccc(Cl)cc1 | 186
36 | COc1cc2c(cc1OC)CC(C#N)=C2 | 140 to 141
37 | O=C(O)c1cn(C2CC2)c2nc(N3CCC(c4ccncc4)C3)c(F)cc2c1=O (configuration not stated) | 223 to 225
38 | Nc1nccc(OCCc2ccccc2)c1N | 86 to 87
39 | COc1cc2oc(=O)c3c(c2cc1[N+](=O)[O-])CCN(CC(C)=O)C3 | 222 to 225
40 | CSc1sc(-c2cn[nH]c2)c2c1C(=O)CC(C)(C)C2 | 213 to 215
41 | CC(=O)NCP(=O)(O)O | 171 to 175
42 | C=CCOc1cccc(C(=O)O)c1 | 78 to 79

Row | SMILES | melting point [°C]
43 | COc1ccc(N2CCN(N=O)CC2)cc1 | 94.5
44 | Cc1ccnc(Sc2cnc(N)s2)n1 | 158 to 159
45 | Fc1ccc2c(c1F)C(C#CC1CC1)(C(F)(F)F)NC(=S)N2 (racemic) | 241 to 243
46 | CCOC(=O)c1sc(SC)c2c1CCc1cn(C)nc1-2 | 193 to 194
47 | CC(=O)OC1C(C)=C(C)C(=O)N1c1ccc(Cl)c(Cl)c1 (configuration not stated) | 109 to 110
48 | CCOC(=O)c1cn2ccncc2n1 | 179
49 | CCCCCC1CCC(c2ccc(CC(=O)OC)cc2)CC1 (configuration not stated) | 46 to 47
50 | COc1ccccc1CP(C)(=O)C1CCCCC1 (configuration not stated) | 108 to 110
51 | CC1(C)Cc2nc(N)sc2C(C)(C)C1 | 120 to 122
52 | O=C(NCCCSc1cccnc1)c1cccs1 | 66 to 67
53 | COc1ccc(CN2CCC(c3cc(-c4ccc(Cl)cc4)[nH]n3)CC2)cc1 | 166 to 168
54 | FC(F)(F)C(F)(F)Oc1ccc(-c2nnco2)cc1 | 87 to 89
55 | O=C(O)C(=O)c1cn(Cc2ccc(F)cc2)c2ccc(-c3ccccc3)cc12 | 165 to 166
56 | CCCCCCCCCCCCCCCCCCOc1cc(OCCCOc2ccc(S(C)=O)cc2)cc(C(=O)O)c1 (configuration not stated) | 77 to 80
57 | COc1ccc(-c2cc3cc(F)c(F)cc3[nH]2)cc1NCc1ccc(O)c([N+](=O)[O-])c1 | 195 to 196
58 | Cc1cccc2c1cc(C(=O)NCC1CCN(CC3(O)CCOCC3)CC1)c(=O)n2C(C)C | 222
59 | COC(=O)c1ccc(-c2nnc(-c3ccc(C(F)(F)F)cc3)o2)c(N)c1 | 237 to 238
60 | CCCCCCCCCCCCNC1=NC(C)(C)N=C(NCc2ccc(S(N)(=O)=O)cc2)N1 | 188 to 191
61 | N=C(N)Nc1nc(CSCCNC(N)=N[N+](=O)[O-])ns1 | 184 to 186
62 | COCOc1cc(Cl)ccc1-c1cc(-c2cccc([N+](=O)[O-])c2)c(C#N)c(N)n1 | 196 to 198

Further lines, results first:

Row | melting point [°C] | SMILES
63 | 125 | Cc1ccc(Nc2cc(-c3ccccc3)nc(-c3ccccc3)c2)cc1
64 | 78 to 79 | O=C(c1ccc(F)cc1)N1CCC[C@H](c2nc(-c3ccccc3)no2)C1
65 | 177 to 179 | O=C(O)C(CCCN1C(=O)c2ccccc2S1(=O)=O)NS(=O)(=O)c1ccc(-c2ccc(Cl)cc2)cc1 (configuration not stated)
66 | 129 to 130 | O=C(N[C@H]1CCOC1=O)OCc1ccccc1
67 | 131 | COc1ccc2cc([C@H](C)C(=O)OCCN3CCC(C)(SN=O)CC3)ccc2c1
68 | 182 | CC(C)(C)OC(=O)Nc1ccc(C#Cc2nccs2)cc1N
69 | 97 to 98 | Cc1cccc(COc2cccc(OCc3cccc(Cl)n3)c2)c1C(=O)O
70 | 141 | CCOC(=O)c1cc(-c2ccc(OC)cc2)nn(C(C)C)c1=O
71 | 109 to 111 | CC(C)C[C@H](NC(=O)[C@H](Cc1c[nH]c2ccccc12)NC(=O)OC(C)(C)C)C(=O)O
72 | 158 to 160 | COc1ccc(C(=O)Nc2ccccc2C(O)C2CCCCN2)cc1 (configuration not stated)
73 | 92 to 95 | COc1ccc2c(c1)CC(CCCNCCCSc1nnc(-c3ccccc3)n1C)CC2 (configuration not stated)
74 | 161 to 164 | CS(=O)(=O)c1ccc(-c2cnn(CC(F)(F)F)c(=O)c2Oc2ccc(F)cc2)cc1
75 | 209 to 211 | Cn1cc(C2=C(c3cn(C)c4cc([N+](=O)[O-])ccc34)C(=O)N(CO)C2=O)c2ccccc21
76 | 148 to 150 | CN(O)C(=O)NCCCCCCOc1ccc(-c2ccccc2)cc1
77 | 122 to 123 | CCc1cnc(CSc2cnc(NC(=O)c3ccccc3)s2)o1
78 | 103 to 106 | CC(C)c1ccc2c(c1)C(=O)N(C)C(c1ccc(C(C)(C)C)cc1)C2 (configuration not stated)
79 | 112 to 114 | COc1ccc(NN=C(Sc2ccc(Cl)cc2)C(C)=O)cc1
80 | 268 to 271 | Cn1cc2c(c1-c1ccccc1)C(=O)c1ccccc1C2=O
81 | 116 to 118 | COC(=O)C(=Cc1ccc2c(c1)OCO2)C(=O)c1cccc(OCc2ccccc2)c1
82 | 183 to 184 | c1ccc(-c2cc3n(n2)Cc2ccccc2-3)cc1

Row | melting point [°C] | SMILES
83 | 220 to 222 | CC1CCCC(C)N1Cc1ccc2cc(NC(=O)c3ccc(-c4ccc(Cl)cc4)cc3)ccc2c1 (configuration not stated)
84 | 152 to 154 | Cc1cc(C2CCN(S(=O)(=O)C(C)(C)C(=O)NO)CC2)ccc1-c1cccc(OC[C@@H](O)CO)c1
85 | 239 to 241 | COc1cc2ncc(C#N)c(Nc3ccc(Oc4ccccc4)cc3)c2cc1OC
86 | 229 to 231 | CC(C)c1nc2c(N)nc3ccccc3c2n1CCOc1ccccc1
87 | 218 to 219 | NC(=O)Cn1ncc2c1CN=C(c1ccccc1)c1cc(Cl)ccc1-2
88 | > 300 | O=c1[nH][nH]c(=O)c2c(O)c(-c3ccccc3)ncc12
89 | 241 to 242 | O=C(Nc1cccc2ccccc12)N[C@H]1C[C@H](C(=O)O)Nc2cc(Cl)cc(Cl)c21 (relative stereo)
90 | 157 to 158 | Cc1nc(N2CCN(Cc3ccccc3)C2=O)sc1C(=O)NCc1ccc(F)cc1F
91 | 207 to 208 | CCCCc1nn2c(C)c(-c3ccccc3)nc2n1Cc1ccc(-c2ccccc2-c2nnn[nH]2)cc1
92 | 157 to 159 | COc1ccc(-c2nc(C(=O)N3CCN(C(=O)NC(C)C)CC3)sc2-c2ccc(OC)cc2)cc1
93 | 138 to 140 | NC(CCCCNC(=O)OCc1ccccc1)C(=O)Nc1cccc2ccccc12 (configuration not stated)
94 | 87 to 89 | CC1(C)CC(=O)C(S(=O)(=O)Cc2ccccc2)=C(O)C1
95 | 229 to 233 | Cc1c(-c2ccccc2)n(-c2ccccc2)c(-c2ccc(C#N)cc2)cc1=O
96 | 96 to 97 | Cc1nn(-c2ccc(C(F)(F)F)cn2)cc1CCCOc1cccc(CC(=O)O)c1
97 | 161 | CC(C)(C)OC(=O)NC(CC(=O)ON1C(=O)CCC1=O)c1ccc(-c2ccccc2)cc1 (configuration not stated)
98 | 172 | O=C1c2ccccc2C(=O)N1OCc1cc(=O)c(OCc2ccccc2)co1
99 | 107 to 109 | CCOC(=O)Cc1cccc(C(=O)c2ccc(Br)cc2)c1N
100 | 162 to 165 | CCOC(=O)CCC1(c2c[nH]cn2)Cc2ccccc2C1=O (configuration not stated)
101 | 195 to 196 | CC(C)(C)C(NC(=O)Cc1ccc(Cl)cc1)NC(=NC#N)Nc1cccc2ncccc12 (configuration not stated)
102 | 108 to 111 | CCOC(=O)CC(O)c1ccc2c(c1)CC(CNS(=O)(=O)c1ccc(Cl)cc1)C2 (configuration not stated)
